How the values were obtained:
[1] = tested on: N2O production from corn, alfalfa, and sorghum silages (denitrifiers); experiment: N2O production from laboratory mini silos (simulated silage) with different treatments, fourth part of the study; conditions: for reduction of N2O production: inoculant + additive 0.1% (w/w), corn, alfalfa, sorghum silages, FIG. 4A, three replicates
Protocol: GHG production from simulated silage. Laboratory experiments were performed to estimate the GHG emission potentials from silage conservation (i.e. anaerobic conservation). In a first part of the study, N2O production from forage silos was studied. The forages used were corn, alfalfa, and sorghum. The mini silos consisted of 1 L glass jars connected to a 1-L Tedlar bag. The forage was chopped into 2-3 cm pieces with a laboratory chopper and ensiled in laboratory mini silos at a bulk density of 700 kg/m^3 (700 grams per silo). The experiments were performed in an incubator at 30° C. in the dark, and the produced gas volume and composition were measured periodically for 30 days.
(§1) The treatments compared in this research consisted of (1) no treatment, (2) commercial silage inoculant (Pioneer® inoculant), (3) inoculant+chlorate (0.1%, w/w), and (4) inoculant+acetate (0.1%, w/w). Three replicates for each treatment were performed.
In the fourth part of the study, three replicates for each treatment were added to forage silos prepared as described in paragraph [0052].

[2] = tested on: N2O production from simulated silage (denitrifiers); experiment: N2O production from alfalfa mini silos (simulated silage) with different treatments, fifth part of the study; conditions: for effect on N2O production: amendment 0.1% (w/w), P<0.001
Protocol: In a second part of the study, N2O and CH4 production from forage silos were studied. The forage used was second cut alfalfa (HVX MegaTron) harvested at the early flower stage. The mini silos consisted of 1 L glass jars connected to a 1-L Tedlar bag. The forage was chopped into 2-3 cm pieces with a laboratory chopper and ensiled in laboratory mini silos at a bulk density of 700 kg/m^3 (700 grams per silo). The experiments were performed in an incubator at 30° C. in the dark, and the produced gas volume and composition were measured periodically for 35 days.
as §1
In the fifth part of the study, three replicates for each treatment were added to forage silos prepared as described in paragraph [0054].

Row | Compound | reduction of N2O production [1] | reduction of N2O ([1]; lower concentrations up to 0.01% (w/w), alfalfa silage, FIG. 4B) | effect on N2O production ([2]; preliminary study) | reduction of N2O production (fold) ([2]; inoculant + 0.1% (w/w) chlorate, alfalfa silage, FIG. 4C) | reduction of total amount of N2O ([2]; acetate as a sodium salt, 1 g per kg-forage, preliminary study) | reduction of N2O production ([2]; inoculant + 0.1% (w/w) acetate, alfalfa silage, P<0.01, FIG. 4C)
1 | [O-][Cl+2]([O-])O [chlorate] | up to 99% | higher than 90% | significantly repressed | more than ten times |  | 
2 | CC(=O)O [acetate] | up to 25% |  | significantly repressed |  | 25% | 25%
